Values after ≈ are worked out from the molar mass of the structure shown. Bounds are passed on as bounds.

The subject of assay [1] is Mycobacterium tuberculosis. Put plainly: Antimycobacterial activity against multidrug-resistant Mycobacterium tuberculosis CF104 clinical isolate incubated for 7 days measured 24 hrs post incubation by resazurin microtiter assay. It is filed as functional.
For assay [2], the system named is Mycobacterium tuberculosis. Briefly: Antimycobacterial activity against multidrug-resistant Mycobacterium tuberculosis CF81 clinical isolate incubated for 7 days measured 24 hrs post incubation by resazurin microtiter assay. It is filed as functional.

Regarding `CN1CCCCC1CCN1c2ccccc2Sc2ccc(Cl)cc21` (configuration not stated), the MIC90 in assay [1] amounted to 16 µg/mL (≈ 44.6 µM); in assay [2], 12 µg/mL (≈ 33.4 µM).

On to `CN1CCCCC1CCn1c2ccccc2c2ccccc21` (configuration not stated), for which the results for the MIC90 in assay [1] and in assay [2] were 48 µg/mL (≈ 164 µM) and 46 µg/mL (≈ 157 µM), respectively.

With `c1ccc2c(c1)ccn2CCC1CCCCN1` (configuration not stated), the MIC90 in assay [1] was 10 µg/mL (≈ 43.8 µM); in assay [2] it was 4 µg/mL (≈ 17.5 µM).

Consider `CSc1ccc2c(c1)N(CCCN1CCN(C)CC1)c1ccccc1S2`, for which the MIC90 in assay [1] was 23 µg/mL (≈ 59.6 µM); in assay [2], 33 µg/mL (≈ 85.6 µM).

`CN1CCCCC1CCN1c2ccccc2Sc2ccccc21` (configuration not stated): the figures for the MIC90 in assay [1] and in assay [2] were more than 64 µg/mL and 58 µg/mL (≈ 179 µM), respectively.

As to `c1ccc2c(c1)Sc1ccccc1N2CCC1CCCCN1` (configuration not stated), the MIC90 in assay [1] was more than 64 µg/mL; in assay [2] it was 58 µg/mL (≈ 187 µM).

`c1ccc2c(c1)ncn2CCC1CCCCN1` (configuration not stated): the MIC90 in assay [1] and in assay [2] was more than 100 µg/mL throughout.

Turning to `CSc1ccc2c(c1)N(CCC1CCCCN1)c1ccccc1S2` (configuration not stated), the MIC90 in assay [1] and in assay [2] was more than 100 µg/mL each time.

`Clc1ccc2c(c1)N(CCC1CCCCN1)c1ccccc1S2` (configuration not stated): the MIC90 turned out to be 19 µg/mL (≈ 55.1 µM) in assay [1] and 11 µg/mL (≈ 31.9 µM) in assay [2].

Take `CSc1ccc2c(c1)N(CCCN1CCN(C3C4CC5CC(C4)CC3C5)CC1)c1ccccc1S2` (configuration not stated): the results for the MIC90 in assay [1] and in assay [2] were 20 µg/mL (≈ 39.5 µM) and 48 µg/mL (≈ 94.9 µM), respectively.

Regarding `CSc1ccc2c(c1)N(C(=O)CN1CCCCC1)c1ccccc1S2`, the MIC90 in assay [1] is 72 µg/mL (≈ 194 µM); in assay [2], more than 100 µg/mL.

On to `CSc1ccc2c(c1)N(CCC1CCCCN1Cc1ccccc1)c1ccccc1S2` (configuration not stated), for which the MIC90 in assay [1] was determined as 32 µg/mL (≈ 71.6 µM); in assay [2], 44 µg/mL (≈ 98.5 µM).

In the case of `NNC(=O)c1ccncc1` [ISONIAZID], the MIC90 in assay [1] and in assay [2] was more than 25 µg/mL in each case.

Consider `CN1CCN(CCCN2c3ccccc3Sc3ccccc32)CC1` [PERAZINE], for which the MIC90 in assay [1] and in assay [2] was more than 100 µg/mL each time.

Turning to `CO[C@H]1/C=C/O[C@@]2(C)Oc3c(C)c(O)c4c(O)c(c(/C=N/N5CCN(C)CC5)c(O)c4c3C2=O)NC(=O)/C(C)=C\C=C\[C@H](C)[C@H](O)[C@@H](C)[C@@H](O)[C@@H](C)[C@H](OC(C)=O)[C@@H]1C` [RIFAMPIN], the MIC90 in assay [1] and in assay [2] was more than 25 µg/mL throughout.

Consider `CSc1ccc2c(c1)N(CCC1CCCCN1C)c1ccccc1S2` (configuration not stated) [THIORIDAZINE], for which the MIC90 was 11 µg/mL (≈ 29.7 µM) in assay [1] and 10 µg/mL (≈ 27 µM) in assay [2].

The values are drawn from ChEMBL document CHEMBL3992516, “Synthesis and SAR evaluation of novel thioridazine derivatives active against drug-resistant tuberculosis” (Eur J Med Chem, 2017).
